From PubChem BioAssay AID1259407 (Chemical Carcinogenesis Research Information System (CCRIS), 2018)
Activity calls are given as the source filed them. No rule for the calls is given here.

System: CCRIS mutagenicity, Ames/micronucleus/aberration tests
Test: CCRIS mutagenicity studies
[1] = Test System: AMES SALMONELLA TYPHIMURIUM, Strain/Indicator: TA98, Metabolic Activation: RAT, LIVER, S-9, AROCLOR 1254, Method: STANDARD PLATE
[2] = Test System: AMES SALMONELLA TYPHIMURIUM, Strain/Indicator: TA98, Metabolic Activation: NONE, Method: STANDARD PLATE
[3] = Test System: AMES SALMONELLA TYPHIMURIUM, Strain/Indicator: TA100, Metabolic Activation: NONE, Method: STANDARD PLATE
[4] = Test System: AMES SALMONELLA TYPHIMURIUM, Strain/Indicator: TA1537, Metabolic Activation: NONE, Method: STANDARD PLATE

## Cc1cnc2ccc3c(nc(N)n3C)c2n1
End Point: IN VIVO MICRONUCLEUS, Test System: BONE MARROW POLYCHROMATIC ERYTHROCYTES, Species: MOUSE, Strain/Sex: BALB/C/MALE, Route: IP INJECTION
  mutagenic call: inactive; negative
Test System: AMES SALMONELLA TYPHIMURIUM, Strain/Indicator: TA98, Metabolic Activation: CYNOMOLGUS MONKEY, LIVER, MICROSOMES, Method: PREINCUBATION
  mutagenic call: inactive; negative
Test System: AMES SALMONELLA TYPHIMURIUM, Strain/Indicator: TA98, Metabolic Activation: CYNOMOLOGUS MONKEY, LIVER, MICROSOMES, 2,3,7,8-TETRACHLORODIBENZO-P-DIOXIN, Method: PREINCUBATION
  mutagenic call: active; positive
Test System: AMES SALMONELLA TYPHIMURIUM, Strain/Indicator: TA98, Metabolic Activation: CYNOMOLOGUS MONKEY, LIVER, MICROSOMES, 2-AMINO-3-METHYLIMIDAZO[4,5-F]QUINOLINE, Method: PREINCUBATION
  mutagenic call: active; positive
Test System: AMES SALMONELLA TYPHIMURIUM, Strain/Indicator: TA98, Metabolic Activation: CYNOMOLOGUS MONKEY, LIVER, MICROSOMES, RIFAMPICIN, Method: PREINCUBATION
  mutagenic call: inactive; negative
Test System: AMES SALMONELLA TYPHIMURIUM, Strain/Indicator: TA98, Metabolic Activation: HUMAN, LIVER, MICROSOMES, Method: PREINCUBATION
  mutagenic call: active; positive
Test System: AMES SALMONELLA TYPHIMURIUM, Strain/Indicator: TA98, Metabolic Activation: MONKEY, LIVER, MICROSOMES, Method: PREINCUBATION
  mutagenic call: active; positive
Test System: AMES SALMONELLA TYPHIMURIUM, Strain/Indicator: TA98, Metabolic Activation: NONE, Method: PREINCUBATION
  mutagenic call: inactive; negative
Test System: AMES SALMONELLA TYPHIMURIUM, Strain/Indicator: TA98, Metabolic Activation: PATAS MONKEY, LIVER, MICROSOMES, Method: PREINCUBATION
  mutagenic call: active; positive
Test System: AMES SALMONELLA TYPHIMURIUM, Strain/Indicator: TA98, Metabolic Activation: RABBIT (6 TO 9 D OF AGE), LIVER, MICROSOMES, 3-METHYLCHOLANTHRENE, Method: PREINCUBATION
  mutagenic call: inactive; negative
Test System: AMES SALMONELLA TYPHIMURIUM, Strain/Indicator: TA98, Metabolic Activation: RABBIT (6 TO 17 D OF AGE), LIVER, MICROSOMES, Method: PREINCUBATION
  mutagenic call: inactive; negative
Test System: AMES SALMONELLA TYPHIMURIUM, Strain/Indicator: TA98, Metabolic Activation: RABBIT (9 D OF AGE TO ADULT), LIVER, MICROSOMES, 3-METHYLCHOLANTHRENE, Method: PREINCUBATION
  mutagenic call: active; positive
Test System: AMES SALMONELLA TYPHIMURIUM, Strain/Indicator: TA98, Metabolic Activation: RABBIT (17 D OF AGE TO ADULT), LIVER, MICROSOMES, Method: PREINCUBATION
  mutagenic call: active; positive
Test System: AMES SALMONELLA TYPHIMURIUM, Strain/Indicator: TA98, Metabolic Activation: RAT, LIVER, MICROSOMES, Method: PREINCUBATION
  mutagenic call: active; positive
Test System: AMES SALMONELLA TYPHIMURIUM, Strain/Indicator: TA98, Metabolic Activation: RAT, LIVER, S-9, AROCLOR 1254, Method: PREINCUBATION
  mutagenic call: active; positive
[1]
  mutagenic call: active; positive
Test System: AMES SALMONELLA TYPHIMURIUM, Strain/Indicator: TA100, Metabolic Activation: NONE, Method: PREINCUBATION
  mutagenic call: inactive; negative
Test System: AMES SALMONELLA TYPHIMURIUM, Strain/Indicator: TA100, Metabolic Activation: RAT, LIVER, S-9, AROCLOR 1254, Method: PREINCUBATION
  mutagenic call: active; positive
Test System: AMES SALMONELLA TYPHIMURIUM, Strain/Indicator: YG1019, Metabolic Activation: RAT LIVER S-9, AROCLOR, Method: PREINCUBATION
  mutagenic call: active; positive
Test System: CHINESE HAMSTER V-79, Strain/Indicator: V-79/6-THIOGUANINE, Metabolic Activation: RAT, LIVER, S-9, AROCLOR 1254
  mutagenic call: inactive; negative
Test System: UDS HAMSTER HEPATOCYTES, Strain/Indicator: THY INCORP, Metabolic Activation: NONE, Method: LIQUID SCINTILLATION COUNTING
  mutagenic call: active; positive
Test System: UDS HUMAN HEPATOCYTES, Strain/Indicator: THY INCORP, Metabolic Activation: NONE, Method: AUTORADIOGRAPHY
  mutagenic call: active; positive
Test System: UDS MOUSE HEPATOCYTES, Strain/Indicator: THY INCORP, Metabolic Activation: NONE, Method: AUTORADIOGRAPHY
  mutagenic call: inactive; negative
Test System: UDS RAT HEPATOCYTES, Strain/Indicator: THY INCORP, Metabolic Activation: NONE, Method: AUTORADIOGRAPHY
  mutagenic call: inactive; negative
Test System: UDS RAT HEPATOCYTES, Strain/Indicator: THY INCORP, Metabolic Activation: NONE, Method: LIQUID SCINTILLATION COUNTING
  mutagenic call: inactive; negative

## CCCCN(CCC(C)=O)N=O
Test System: AMES SALMONELLA TYPHIMURIUM, Strain/Indicator: TA1535, Metabolic Activation: RAT, LIVER, S-9, KC500 OR PHENOBARBITAL, Method: LIQUID SUSPENSION
  mutagenic call: active; positive

## OC[C@H]1O[C@@H](n2cnc3c(=S)nc[nH]c32)[C@H](O)[C@@H]1O
[2]
  mutagenic call: inactive; negative
[3]
  mutagenic call: active; positive
Test System: AMES SALMONELLA TYPHIMURIUM, Strain/Indicator: TA102, Metabolic Activation: NONE, Method: STANDARD PLATE
  mutagenic call: inactive; negative
[4]
  mutagenic call: inactive; negative
Test System: E. COLI, Strain/Indicator: WP2 (HCR), Metabolic Activation: NONE, Method: STANDARD PLATE
  mutagenic call: inactive; negative

## Nc1ccc2ccccc2c1N=Nc1ccccc1
Test System: AMES SALMONELLA TYPHIMURIUM, Strain/Indicator: TA98, Metabolic Activation: HAMSTER, LIVER, S-9, AROCLOR 1254 (2.5-20%), Method: PREINCUBATION
  mutagenic call: inactive; negative
Test System: AMES SALMONELLA TYPHIMURIUM, Strain/Indicator: TA98, Metabolic Activation: HAMSTER, LIVER, S-9, AROCLOR 1254, Method: STANDARD PLATE
  mutagenic call: inactive; negative
[2]
  mutagenic call: inactive; negative
[1]
  mutagenic call: inactive; negative
Test System: AMES SALMONELLA TYPHIMURIUM, Strain/Indicator: TA100, Metabolic Activation: HAMSTER, LIVER, S-9, AROCLOR 1254 (2.5-20%), Method: PREINCUBATION
  mutagenic call: inactive; negative
Test System: AMES SALMONELLA TYPHIMURIUM, Strain/Indicator: TA100, Metabolic Activation: HAMSTER, LIVER, S-9, AROCLOR 1254, Method: STANDARD PLATE
  mutagenic call: inactive; negative
[3]
  mutagenic call: inactive; negative
Test System: AMES SALMONELLA TYPHIMURIUM, Strain/Indicator: TA100, Metabolic Activation: RAT, LIVER, S-9, AROCLOR 1254, Method: STANDARD PLATE
  mutagenic call: inactive; negative
Test System: AMES SALMONELLA TYPHIMURIUM, Strain/Indicator: TA102, Metabolic Activation: HAMSTER, LIVER, S-9, AROCLOR 1254 (10%), Method: PREINCUBATION
  mutagenic call: inactive; negative
Test System: AMES SALMONELLA TYPHIMURIUM, Strain/Indicator: TA102, Metabolic Activation: NONE, Method: PREINCUBATION
  mutagenic call: inactive; negative
Test System: AMES SALMONELLA TYPHIMURIUM, Strain/Indicator: TA102, Metabolic Activation: RAT, LIVER, S-9, AROCLOR 1254 (10%), Method: PREINCUBATION
  mutagenic call: inactive; negative
Test System: AMES SALMONELLA TYPHIMURIUM, Strain/Indicator: TA1535, Metabolic Activation: HAMSTER, LIVER, S-9, AROCLOR 1254, Method: STANDARD PLATE
  mutagenic call: inactive; negative
Test System: AMES SALMONELLA TYPHIMURIUM, Strain/Indicator: TA1535, Metabolic Activation: NONE, Method: STANDARD PLATE
  mutagenic call: inactive; negative
Test System: AMES SALMONELLA TYPHIMURIUM, Strain/Indicator: TA1535, Metabolic Activation: RAT, LIVER, S-9, AROCLOR 1254, Method: STANDARD PLATE
  mutagenic call: inactive; negative
Test System: AMES SALMONELLA TYPHIMURIUM, Strain/Indicator: TA1537, Metabolic Activation: HAMSTER, LIVER, S-9, AROCLOR 1254, Method: STANDARD PLATE
  mutagenic call: inactive; negative
[4]
  mutagenic call: inactive; negative
Test System: AMES SALMONELLA TYPHIMURIUM, Strain/Indicator: TA1537, Metabolic Activation: RAT, LIVER, S-9, AROCLOR 1254, Method: STANDARD PLATE
  mutagenic call: inactive; negative
Test System: AMES SALMONELLA TYPHIMURIUM, Strain/Indicator: TA1538, Metabolic Activation: HAMSTER, LIVER, S-9, AROCLOR 1254, Method: STANDARD PLATE
  mutagenic call: inactive; negative
Test System: AMES SALMONELLA TYPHIMURIUM, Strain/Indicator: TA1538, Metabolic Activation: NONE, Method: STANDARD PLATE
  mutagenic call: inactive; negative
Test System: AMES SALMONELLA TYPHIMURIUM, Strain/Indicator: TA1538, Metabolic Activation: RAT, LIVER, S-9, AROCLOR 1254, Method: STANDARD PLATE
  mutagenic call: inactive; negative
Test System: MOUSE LYMPHOMA, Strain/Indicator: L5178Y (TK+/TK-), Metabolic Activation: NONE, Method: SUSPENSION/PLATE
  mutagenic call: active; positive. reevaluation of results: equivocal

## c1ccc2c(c1)ccc1nc3c4c(c5ccccc5c3cc12)O4
Test System: AMES SALMONELLA TYPHIMURIUM, Strain/Indicator: TA100, Metabolic Activation: GUINEA PIG, LIVER, S-9, 3-METHYLCHOLANTHRENE, Method: STANDARD PLATE
  mutagenic call: active; positive
